Measurements as given in ChEMBL document CHEMBL1201862, “PubChem BioAssay data set” (2004).
The source made the active and inactive calls.

Tests used:
[1] = biological target: T1, Adenosylmethionine-8-amino-7-oxononanoate aminotransferase (Mycobacterium tuberculosis, UniProt P9WQ81); assay: Mycobacterium tuberculosis BioA enzyme inhibitor Measured in Biochemical System Using Plate Reader - 2163-02_Inhibitor_Dose_CherryPick_Activity.; type: functional, Mycobacterium tuberculosis UT205
T1 sequence (P9WQ81 whole entry): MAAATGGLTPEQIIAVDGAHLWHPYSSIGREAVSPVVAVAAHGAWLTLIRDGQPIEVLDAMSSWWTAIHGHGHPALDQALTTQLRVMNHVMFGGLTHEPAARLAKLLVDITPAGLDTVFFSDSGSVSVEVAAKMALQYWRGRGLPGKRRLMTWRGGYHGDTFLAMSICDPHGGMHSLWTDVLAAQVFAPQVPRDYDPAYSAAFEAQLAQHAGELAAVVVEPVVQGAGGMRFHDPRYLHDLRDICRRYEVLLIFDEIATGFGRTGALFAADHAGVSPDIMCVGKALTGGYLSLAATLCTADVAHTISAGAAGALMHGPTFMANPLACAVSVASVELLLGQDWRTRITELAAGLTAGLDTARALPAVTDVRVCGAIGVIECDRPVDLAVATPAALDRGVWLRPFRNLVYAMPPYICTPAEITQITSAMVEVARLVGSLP

[2] = Trypanosoma cruzi growth suppression in host cells – NIH3T3 host cells, beta-gal luminescence, confirmation (AID 2044); type: functional, cell-based;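 also: intracellular parasites grown in NIH/3T3 mouse fibroblasts as host cells; luminescent beta-galactosidase reporter signal from transgenic T. cruzi replicating inside host cells; inhibitors lower the luminescence signal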
HeLa = assay: ATP-based viability loss in HeLa cells – cell-based, CellTiter-Glo luminescence, cherry-pick samples, cytotoxicity control for MITF activator project, dose response (AID 540259); type: functional; conditions: Homo sapiens
[3] = NIH3T3 cell viability loss – ATP luminescence, mouse fibroblasts, counter-screen, dose response (AID 2010); type: functional, cell-based;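 also: cells exposed to compound for about 90 hours before reading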
[4] = THP-1 cell cytotoxicity, dose response, cytotoxicity control for non-replicating M. tuberculosis project (AID 489025); type: functional
Paired box protein Pax-8 = Paired box protein Pax-8 (Homo sapiens, UniProt Q06710); assay: PAX8 transcriptional activity inhibition in RMG-I – RMG-I cells, luciferase, cherry-pick, dose response (AID 687027); type: functional, cell-based;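 also: luciferase reporter driven by Pax8 target thyroperoxidase promoter measured by SteadyGlo luminescence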
[5] = HepG2 cell cytotoxicity, dose response, cytotoxicity control for non-replicating M. tuberculosis project (AID 489018); type: functional; conditions: Mycobacterium tuberculosis
Vero = assay: cells; type: functional, cell-based; conditions: Chlorocebus sabaeus
[6] = toxicity toward HepG2 liver cells – cell-based, plate reader, cherry-pick, antagonist series, cytotoxicity control, dose response (AID 743416); type: functional
[7] = Luminescence Cell-Based Dose Confirmation HTS to Identify Inhibitors of Platelet Dense Granule Release. [Related pubchem assays: 1663 (Primary HTS), 1678 (Summary of Project)]; type: functional
[8] = A549 cell cytotoxicity, dose response, cytotoxicity control, plate reader, cherry-pick, antagonist series (AID 743412); type: functional, cell-based
[9] = blockers of bursicon-stimulated LGR2 cAMP reporter – cell-based, HEK293, CRE-luciferase reporter, cherry pick, set 2, dose response (AID 743343); type: functional;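 also: transfected cells were stimulated with diluted bursicon conditioned medium after compound addition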
[10] = blockade of melanocortin 4 receptor signaling – cell-based, plate reader, cherry pick, counter-screen for LGR2 antagonist project, dose response (AID 743444); type: functional;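 also: transfected HEK 293 cells stimulated with alpha-MSH peptide; potency of inhibitors of the alpha-MSH evoked signal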
[11] = biological target: T2, Luciferin 4-monooxygenase (Photinus pyralis, UniProt P08659); assay: Counter Screen for Luciferase-based Assay Positives. [Related pubchem assays: 620, 618, 411 ]
HT-1080 = assay: HT1080 cell viability loss – fluorescence readout (AID 620); type: functional, cell-based; conditions: Homo sapiens
[12] = biological target: T2, Luciferin 4-monooxygenase; assay: inhibition of purified Photinus pyralis luciferase – biochemical, luminescence, dose response (AID 1891)
Leucine aminopeptidase = biological target: T3, Leucine aminopeptidase (Plasmodium falciparum 3D7, UniProt Q8IL11); assay: P. falciparum M17LAP inhibitors, primary screen, biochemical, fluorogenic H-Leu-NHMec substrate, 1536-well (AID 1619); type: functional
T3 sequence (Q8IL11 whole entry): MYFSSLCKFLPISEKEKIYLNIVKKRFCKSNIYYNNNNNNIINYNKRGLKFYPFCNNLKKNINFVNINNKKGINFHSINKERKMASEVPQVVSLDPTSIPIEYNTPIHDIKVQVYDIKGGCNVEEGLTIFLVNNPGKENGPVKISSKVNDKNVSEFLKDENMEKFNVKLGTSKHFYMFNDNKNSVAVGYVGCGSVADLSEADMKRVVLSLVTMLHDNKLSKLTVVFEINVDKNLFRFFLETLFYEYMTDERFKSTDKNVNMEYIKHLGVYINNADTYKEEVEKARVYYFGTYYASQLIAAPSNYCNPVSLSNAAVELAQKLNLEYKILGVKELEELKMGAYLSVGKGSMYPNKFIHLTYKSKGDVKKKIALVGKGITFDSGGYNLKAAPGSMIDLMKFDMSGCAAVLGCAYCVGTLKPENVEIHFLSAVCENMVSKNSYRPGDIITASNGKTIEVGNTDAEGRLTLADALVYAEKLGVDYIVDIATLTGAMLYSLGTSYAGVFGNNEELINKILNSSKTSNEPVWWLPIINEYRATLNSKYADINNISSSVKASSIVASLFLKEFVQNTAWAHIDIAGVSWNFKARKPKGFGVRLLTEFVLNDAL

[13] = biological target: Dual specificity tyrosine-phosphorylation-regulated kinase 1A (Rattus norvegicus, UniProt Q63470); type: biochemical, Homo sapiens
[14] = biological target: FAD-linked sulfhydryl oxidase ALR (Homo sapiens, UniProt P55789); assay: ALR-catalysed DTT oxidation blockers – biochemical, H2O2 detection, luminescence, cherry-pick, dose response (AID 493248)
H4 = assay: Luminescence Cell-Based Dose Response HTS to Identify Activators of 5'UTR Stem-Loop Driven Prion Protein mRNA Translation in H4 Neuroglioblastoma Cells. [Related pubchem assays: 1829 (Project Summary), 1814 (Primary HTS)]; type: functional; conditions: Homo sapiens

T2 sequence (P08659 whole entry): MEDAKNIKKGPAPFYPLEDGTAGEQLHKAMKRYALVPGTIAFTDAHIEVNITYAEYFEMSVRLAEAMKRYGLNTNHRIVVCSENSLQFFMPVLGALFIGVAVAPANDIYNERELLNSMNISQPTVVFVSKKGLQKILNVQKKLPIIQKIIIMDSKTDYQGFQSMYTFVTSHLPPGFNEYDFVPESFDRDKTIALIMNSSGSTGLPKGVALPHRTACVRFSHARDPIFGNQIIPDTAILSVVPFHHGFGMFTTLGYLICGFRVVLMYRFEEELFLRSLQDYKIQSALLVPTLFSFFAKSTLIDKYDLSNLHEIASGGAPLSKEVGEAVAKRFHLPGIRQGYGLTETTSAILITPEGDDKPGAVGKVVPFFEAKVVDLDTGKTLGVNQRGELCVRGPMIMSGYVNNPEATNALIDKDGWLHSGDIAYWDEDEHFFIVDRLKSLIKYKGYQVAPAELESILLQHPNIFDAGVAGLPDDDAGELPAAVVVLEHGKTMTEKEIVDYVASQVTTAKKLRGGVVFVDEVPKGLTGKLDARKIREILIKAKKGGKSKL
Chain of FAD-linked sulfhydryl oxidase ALR (P55789 whole entry): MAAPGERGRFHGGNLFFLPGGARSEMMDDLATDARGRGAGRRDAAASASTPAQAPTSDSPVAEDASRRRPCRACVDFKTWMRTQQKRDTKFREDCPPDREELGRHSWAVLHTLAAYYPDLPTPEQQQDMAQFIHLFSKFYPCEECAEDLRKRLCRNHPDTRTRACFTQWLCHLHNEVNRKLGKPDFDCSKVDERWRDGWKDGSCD
Chain of Paired box protein Pax-8 (Q06710 whole entry): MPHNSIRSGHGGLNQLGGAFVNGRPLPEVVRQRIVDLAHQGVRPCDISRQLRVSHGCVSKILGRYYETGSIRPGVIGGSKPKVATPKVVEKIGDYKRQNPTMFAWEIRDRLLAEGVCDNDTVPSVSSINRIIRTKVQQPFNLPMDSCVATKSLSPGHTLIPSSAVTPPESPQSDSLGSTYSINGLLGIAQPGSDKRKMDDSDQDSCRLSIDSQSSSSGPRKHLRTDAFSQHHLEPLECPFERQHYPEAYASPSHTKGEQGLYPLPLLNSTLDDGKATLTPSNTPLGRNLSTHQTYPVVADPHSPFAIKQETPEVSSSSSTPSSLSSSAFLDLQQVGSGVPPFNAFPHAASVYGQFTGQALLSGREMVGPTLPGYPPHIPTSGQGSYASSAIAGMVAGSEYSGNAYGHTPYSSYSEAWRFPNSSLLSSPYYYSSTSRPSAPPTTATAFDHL

## Cc1c(C(N)=O)sc(N)c1C(=O)OC(C)C
[1]
  AC50: 3.06 µM (active)

## CC(=O)c1ccc(NC(=O)C2CC(=O)N(Cc3ccccc3)C2)cc1 (configuration not stated)
[1]
  AC50: 5.19 µM (active)

## Cc1ccc(NCC(=O)c2ccc(C)cc2)cc1
[2]
  EC50: 4.53 µM (active)
HeLa
  AC50: 103 µM (active)
[3]
  EC50: > 60 µM (not active)

## CCOC(=O)Nc1ccc2c(c1)N(C(=O)CCCl)c1ccccc1[S@]2=O
[4]
  CC50: 24.7 µM (active)
Paired box protein Pax-8
  AC50: 4.57 µM (active)
[5]
  CC50: 18.9 µM (active)

## CCN(CC)CCCNC(=O)c1ccc2c(Cl)c3c(nc2c1)CCCC3
Vero
  IC50: 22.6 µM (active)

## CCCc1ccc(-c2ccc(F)c(N)c2)nc1
[6]
  AC50: > 52 µM (inactive)
[7]
  EC50: 6.17 µM (active)
[8]
  AC50: > 52 µM (inactive)
[9]
  AC50: 4.32 µM (active)
[10]
  AC50: 4.06 µM (active)
[11]
  EC50: 1.58 µM (active)
HT-1080
  EC50: > 50 µM (not active)
[12]
  EC50: 6.33 µM (active)

## COc1cccc(CNC(=O)c2ccc(NC(=O)C3=CSCCO3)cc2)c1
[1]
  AC50: 3.61 µM (active)

## CC(=O)Nc1cccc(-c2nc3ccc(NC(C)=O)cc3s2)c1
HeLa
  AC50: 59.3 µM (active)

## O=C(O)COc1ccc(/C=C/c2ccc3cccc([N+](=O)[O-])c3n2)cc1
Leucine aminopeptidase
  IC50: 23.2 µM (active)
[13]
  AC50: 6.6 µM (active)

## N#C/C(=C/c1ccc(O)c([N+](=O)[O-])c1)C(=O)Nc1ccccc1
[13]
  AC50: 1.11 µM (active)

## Cc1ccc2[nH]c(-c3cccc(N)c3)nc2c1
[11]
  EC50: 0.49 µM (active)
[14]
  AC50: 0.838 µM (active)
HT-1080
  EC50: 20.6 µM (active)

## Cc1ccc(C(=O)Nc2nc3c(s2)CCCC3)o1
[11]
  EC50: > 100 µM (not active)
HT-1080
  EC50: > 50 µM (not active)

## COc1ccc(C2=NN(c3ccccc3)C(c3ccc(OC)c(OC)c3)C2)cc1 (configuration not stated)
HeLa
  AC50: 52 µM (active)

## O=C(Nc1nc2ccccc2[nH]1)c1ccccc1
[11]
  EC50: < 0.2 µM (active)
HT-1080
  EC50: > 50 µM (not active)

## C/C=C/c1ccc2c(c1)O[C@@H](CN(C)C(=O)c1ccc3c(c1)OCO3)[C@@H](C)CN([C@@H](C)CO)S2(=O)=O
[1]
  AC50: 5.33 µM (active)

## CC(C)(C)c1cc(NC(=O)Nc2ccccc2)no1
H4
  EC50: > 120 µM (not active)
HeLa
  AC50: > 350 µM (inactive)

## C/C(=N\OCc1ccc(C#N)cc1)c1ccc(S(=O)(=O)N(C)C)cc1
HeLa
  AC50: 147 µM (active)

## COc1ccc(C(=O)NNC2=C(C(=O)C(F)(F)F)CCC2)cc1
[4]
  CC50: 18.1 µM (active)
[5]
  CC50: > 20 µM (active)

## O=c1c2c(O)cc(O)cc2oc2ccc(O)c(O[C@@H]3O[C@H](CO)[C@@H](O)[C@H](O)[C@H]3O[C@H]3O[C@H](CO)[C@@H](O)[C@H](O)[C@H]3O)c12
[13]
  AC50: 3.69 µM (active)
